Consider 2 compounds from patent publication EP0326331B1, “Substituted quinolines and cinnolines” (Dow AgroSciences LLC, priority 1988, dated 1989).

What all share (assay type): in vivo
Data set [1] deals with Erysiphe graminis tritici (powdery mildew). The data set can be described thus: Test 1 greenhouse foliar spray screen, powdery mildew on wheat.
Data set [2] relates to Twospotted spider mites (Tetranychus urticae Koch). Description: Mite/insect screen, SM. The following applies: for SM RESULTS %: foliar spray on squash. Put shortly:
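Read-out: percent mortality after standard exposure periods. Test solutions were water dilutions of compound dissolved in acetone/alcohol (50:50) with emulsifier blends; leaves were sprayed to runoff on both surfaces and air-dried for one hour before exposure.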

Data set [3] concerns corn rootworm. The data set can be described thus: Mite/insect screen, CRW. The following applies: percent mortality, read-out: CRW RESULTS %. The essentials:
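Corn rootworm mortality (%) was evaluated following standard exposure times. Test material was emulsified by dissolution in acetone/alcohol (1:1) containing sulfonate/nonionic emulsifier blends TOXIMUL R (23 g/L) and TOXIMUL S (13 g/L), and water-diluted to the indicated doses.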

For data set [4], the system named is Septoria tritici (leaf blotch). Description: Test 1 greenhouse foliar spray screen, leaf blotch on wheat.
Data set [5] relates to melon aphids (Aphis gossypii Glover). Description: Mite/insect screen, MA. The following applies: percent mortality; for MA RESULTS %: foliar spray on squash. The essentials: (§1)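 Percent mortality was scored after standard exposure periods, following spraying of leaves to runoff (both surfaces, 10 psi, 1 h drying) with water dilutions of compound in emulsifier-containing acetone/alcohol (50:50). Armyworms received excised treated leaves in dishes.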

For data set [6], the system named is Venturia inaequalis (apple scab). The data set can be described thus: Test 1 greenhouse foliar spray screen, apple scab on apple seedling.
The test system of data set [7] is Botrytis cinerea (gray mold). The data set can be described thus: Test 1 greenhouse foliar spray screen, gray mold on grape berries.
The subject of data set [8] is Puccinia recondita tritici (leaf rust). The data set can be described thus: Test 1 greenhouse foliar spray screen, leaf rust on wheat.
The subject of data set [9] is Pseudoperonospora cubensis (downy mildew). The data set can be described thus: Test 1 greenhouse foliar spray screen, downy mildew on squash.
Data set [10] relates to Cercospora beticola (leaf spot). Description: Test 1 greenhouse foliar spray screen, leaf spot on sugar beet.
Data set [11] has as its system southern armyworm (Spodopetra eridania Cramer). The data set can be described thus: Mite/insect screen, SAW. The following applies: percent mortality. Put shortly: as §1
The test system of data set [12] is Rhynchosporium secalis. The data set can be described thus: Field tests against plant pathogens. Conditions: field test, crop barley. The source says: (§2) Selected compounds were field tested against a variety of plant pathogens. […]
For data set [13], the system named is Pyrenophora teres. Description: Field tests against plant pathogens. The following applies: field test, crop barley.
Source text: as §2

For data set [14], the system named is Erysiphe graminis tritici. Description: Field tests against plant pathogens. Conditions: field test, crop wheat.
Source text: as §2

For data set [15], the system named is Sphaerotheca fuliginea. Description: Field tests against plant pathogens. Conditions: field test, crop cucumber.
Source text: as §2

Data set [16] relates to Pseudocercosporella herpotrichoides. The data set can be described thus: Field tests against plant pathogens. The following applies: field test, crop wheat.
Source text: as §2

The test system of data set [17] is Pyricularia oryzae (rice blast). Description: whole plant or invertebrate. The following applies: for activity against rice blast: summary statement in the description.
The mark [18] stands for this setting: disease control rating, foliar spray on wheat, 400 ppm (+++ at 100 ppm).
Setting [19] is: Test 1, foliar spray on wheat, disease control rating at 400 ppm / 100 ppm.

Like-named read-outs stand apart in the source and are kept apart here.

For `CC(=O)N(CCc1ccc(Cl)cc1)c1ccnc2c(F)cccc12` [Example 10, N-[2-(4-chlorophenyl)ethyl]-N-(8-fluoro-4-quinolinyl)acetamide], in [1] (setting [18]), the “POWD MDEW” value is given as “++ (90-100% control at 400 ppm)”. Further, the mortality at 200 ppm in [2] (Tetranychus urticae, percent mortality, SAW, SM & MA RATE 200 PPM, read-out: SM RESULTS %) turned out to be 0%; in [5] (Aphis gossypii, SAW, SM & MA RATE 200 PPM, read-out: MA RESULTS %), 0%; in data set [11] (Spodoptera eridania, SAW, SM & MA RATE 200 PPM, read-out: SAW RESULTS %), 0%. Also, the mortality at 400 ppm amounted to 0% in [2] (Tetranychus urticae, percent mortality, SAW, SM & MA RATE 400 PPM, read-out: SM RESULTS %); 0% in data set [5] (Aphis gossypii, SAW, SM & MA RATE 400 PPM, read-out: MA RESULTS %); 0% in data set [11] (Spodoptera eridania, SAW, SM & MA RATE 400 PPM, read-out: SAW RESULTS %). Also, the mortality at 12 ppm in [3] (CRW RATE 12.00 PPM) stood at 0%. Moreover, the mortality at 24 ppm in [3] (CRW RATE 24.00 PPM) is 0%. In data set [4] (setting [18]), the “LEAF BLOT” value is on record as “+++ (90-100% control at 100 ppm)”. Moreover, the “APPL SCAB” value in [6] (disease control rating, foliar spray on apple seedling, 400 ppm (+++ at 100 ppm)) is “- (0-19% control at 400 ppm)”. The “GRAY MOLD” value in data set [7] (disease control rating, spray on grape berries, 400 ppm (+++ at 100 ppm)) is reported as “- (0-19% control at 400 ppm)”. Further, the “LEAF RUST” value in data set [8] (setting [18]) is “+++ (90-100% control at 100 ppm)”. Further, the “DOWN MDEW” value in data set [9] (disease control rating, foliar spray on squash, 400 ppm (+++ at 100 ppm)) is listed as “++ (90-100% control at 400 ppm)”. The “LEAF SPOT” value in data set [10] (disease control rating, foliar spray on sugar beet, 400 ppm (+++ at 100 ppm)) is listed as “+++ (90-100% control at 100 ppm)”. Further, the “pathogens against which compounds of the invention showed activity” value is “Rhynchosporium secalis” in data set [12]; “Pyrenophora teres” in data set [13]; “Erysiphe graminis tritici” in data set [14]; “Sphaerotheca fuliginea” in data set [15]; “Pseudocercosporella herpotrichoides” in data set [16]. In addition, the “RICE BLAST” value in data set [17] (disease control rating, foliar spray on rice, 400 ppm (+++ at 100 ppm)) is recorded as “+++ (90-100% control at 100 ppm)”. Moreover, the “activity against rice blast” value in [17] was “particularly excellent activity”.

In the case of `Fc1cccc2c(OCCc3ccc(-c4ccccc4)cc3)ccnc12` [Example 200], in data set [1] (setting [19]), the “POWD MDEW” value is recorded as “+++ (90-100% control at 100 ppm)”. Moreover, the “SM RESULTS %” value in data set [2] (percent mortality, rate 200 ppm) came out at 100%; in data set [2] (percent mortality, rate 400 ppm) it was 100%. Moreover, the activity as miticides entry in data set [2] (summary statement in the description) was “particularly excellent activity”. In [3] (CRW rate 12.00 ppm), the mortality at 12 ppm was 0%. Also, in data set [3] (CRW rate 24.00 ppm), the mortality at 24 ppm stood at 0%. In addition, the pest or weed control at 400 ppm in data set [4] (Zymoseptoria tritici, Test 1, foliar spray on wheat, disease control rating at 400 ppm / 100 ppm, read-out: LEAF BLOT) was 90 to 100%; in data set [6] (Venturia inaequalis, Test 1, foliar spray on apple seedling, disease control rating at 400 ppm / 100 ppm, read-out: APPL SCAB) it was 20 to 89%; in [7] (Botrytis cinerea, foliar, Test 1, spray on grape berries, disease control rating at 400 ppm / 100 ppm), 0 to 19%; in data set [10] (Cercospora beticola, Test 1, foliar spray on sugar beet, disease control rating at 400 ppm / 100 ppm) it was 20 to 89%. Further, the “MA RESULTS %” value in data set [5] (rate 200 ppm) and in [5] (rate 400 ppm) was 100% in each case. Also, in data set [8] (setting [19]), the “LEAF RUST” value was “+++ (90-100% control at 100 ppm)”. The “DOWN MDEW” value in [9] (Test 1, foliar spray on squash, disease control rating at 400 ppm / 100 ppm) is on record as “+ (20-89% control at 400 ppm)”. For the same compound, in data set [11] (Spodoptera eridania, foliar, rate 200 ppm, foliar spray on squash, read-out: SAW RESULTS %), the mortality at 200 ppm amounted to 0%. For the same compound, the “SAW RESULTS %” value in [11] (rate 400 ppm, foliar spray on squash) amounted to 50%. Besides, the “pathogens against which compounds of the invention showed activity” value in data set [12] is listed as “Rhynchosporium secalis”; in data set [13], “Pyrenophora teres”; in data set [14], “Erysiphe graminis tritici”; in data set [15], “Sphaerotheca fuliginea”; in data set [16] it was “Pseudocercosporella herpotrichoides”. Besides, the “RICE BLAST” value in data set [17] (Test 1, foliar spray on rice, disease control rating at 400 ppm / 100 ppm) was “+++ (90-100% control at 100 ppm)”. Also, the “activity against rice blast” value in data set [17] is “particularly excellent activity”.
